Measurements from US20250098679A1, “HERBICIDAL PYRIDONE DERIVATIVES” (SYNGENTA CROP PROTECTION AG, priority 2021, published 2025).

Assays:
Assay type in all cases: in vivo
Details in all cases: evaluated after 13 days
[1] = test system: Echinochloa crus-galli (ECHCG); test: Post-emergence Test, Echinochloa crus-galli (ECHCG); set-up: key to percentage damage caused to the plant, ECHCG (five-point scale): 5=81-100%, 4=61-80%, 3=41-60%, 2=21-40%, 1=0-20% damage
Method in brief: (§1)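 Application was a spray of acetone/water (50:50) with 0.5% Tween 20 onto pots of test species sown in standard soil. Unless otherwise stated, the rate was 1000 g/ha. After 13 days under glasshouse conditions (24/16 °C, 65% humidity), injury was scored from 1 (0-20%) to 5 (81-100%).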

Setaria faberi (SETFA) [2] = test: Pre-emergence Test, Setaria faberi (SETFA)
[3] = test system: Ipomoea hederacea (IPOHE); test: Post-emergence Test, Ipomoea hederacea (IPOHE); set-up: key to percentage damage caused to the plant, IPOHE (five-point scale): 5=81-100%, 4=61-80%, 3=41-60%, 2=21-40%, 1=0-20% damage
Method in brief: as §1

[4] = test system: Amaranthus palmeri (AMAPA); test: Pre-emergence Test, Amaranthus palmeri (AMAPA)
Zea mays (ZEAMX) [5] = test: Pre-emergence Test, Zea mays (ZEAMX)
[6] = test system: Ipomoea hederacea (IPOHE); test: Pre-emergence Test, Ipomoea hederacea (IPOHE)
Setaria faberi (SETFA) [7] = test: Post-emergence Test, Setaria faberi (SETFA); set-up: key to percentage damage caused to the plant, SETFA (five-point scale): 5=81-100%, 4=61-80%, 3=41-60%, 2=21-40%, 1=0-20% damage
Method in brief: as §1

[8] = test system: Amaranthus palmeri (AMAPA); test: Post-emergence Test, Amaranthus palmeri (AMAPA); set-up: key: 5=81-100%, 4=61-80%, 3=41-60%, 2=21-40%, 1=0-20% damage
Method in brief: as §1

[9] = test system: Echinochloa crus-galli (ECHCG); test: Pre-emergence Test, Echinochloa crus-galli (ECHCG)
Zea mays (ZEAMX) [10] = test: Post-emergence Test, Zea mays (ZEAMX); set-up: key to percentage damage caused to the plant, ZEAMX (five-point scale): 5=81-100%, 4=61-80%, 3=41-60%, 2=21-40%, 1=0-20% damage
Method in brief: as §1

[11] = test system: Amaranthus retoflexus (AMARE); test: Post-emergence Test, Amaranthus retoflexus (AMARE); set-up: key to percentage damage caused to the plant, AMARE (five-point scale): 5=81-100%, 4=61-80%, 3=41-60%, 2=21-40%, 1=0-20% damage
Method in brief: as §1

[12] = test system: Amaranthus retoflexus (AMARE); test: Pre-emergence Test, Amaranthus retoflexus (AMARE)

Row | SMILES | percentage damage caused to the plant, ECHCG (five-point scale) ([1]; 250 g/Ha) | Pre-emergence Test SETFA, percentage damage caused to the plant (five-point scale) (Setaria faberi (SETFA) [2]; 250 g/Ha (*)) | percentage damage caused to the plant, IPOHE (five-point scale) ([3]; 250 g/Ha) | Pre-emergence Test AMAPA, percentage damage caused to the plant (five-point scale) ([4]; 250 g/Ha (*)) | percentage damage caused to the plant, SETFA (five-point scale) (Setaria faberi (SETFA) [7]; 250 g/Ha) | percentage damage caused to the plant, AMAPA (five-point scale) ([8]; 250 g/Ha) | percentage damage caused to the plant, ZEAMX (five-point scale) (Zea mays (ZEAMX) [10]; 250 g/Ha) | percentage damage caused to the plant, AMARE (five-point scale) ([11]; 250 g/Ha) | percentage damage caused to the plant, ECHCG (five-point scale) ([1]; 1000 g/ha) | Pre-emergence Test SETFA, percentage damage caused to the plant (five-point scale) (Setaria faberi (SETFA) [2]; 1000 g/ha) | percentage damage caused to the plant, IPOHE (five-point scale) ([3]; 1000 g/ha) | Pre-emergence Test AMAPA, percentage damage caused to the plant (five-point scale) ([4]; 1000 g/ha) | Pre-emergence Test ZEAMX, percentage damage caused to the plant (five-point scale) (Zea mays (ZEAMX) [5]; 1000 g/ha) | Pre-emergence Test IPOHE, percentage damage caused to the plant (five-point scale) ([6]; 1000 g/ha) | percentage damage caused to the plant, SETFA (five-point scale) (Setaria faberi (SETFA) [7]; 1000 g/ha) | percentage damage caused to the plant, AMAPA (five-point scale) ([8]; 1000 g/ha) | Pre-emergence Test ECHCG, percentage damage caused to the plant (five-point scale) ([9]; 1000 g/ha) | percentage damage caused to the plant, ZEAMX (five-point scale) (Zea mays (ZEAMX) [10]; 1000 g/ha) | percentage damage caused to the plant, AMARE (five-point scale) ([11]; 1000 g/ha) | Pre-emergence Test AMARE, percentage damage caused to the plant (five-point scale) ([12]; 1000 g/ha) | also measured
1 | CCn1c(Cn2ncnc2OC)cc(=O)c(C(=O)O)c1-c1ccc(Cl)c(Cl)c1 [Compound 124, 2-(3,4-dichlorophenyl)-1-ethyl-6-[(5-methoxy-1,2,4-triazol-1-yl)methyl]-4-oxo-pyridine-3-carboxylic acid] | 4 (4=61-80%) | 0 | 0 | 1 (1=0-20%) | 2 (2=21-40%) | 0 | 1 (1=0-20%) | 1 (1=0-20%) |  |  |  |  |  |  |  |  |  |  |  |  | Pre-emergence Test ZEAMX, percentage damage caused to the plant (five-point scale) (Zea mays (ZEAMX) [5]; 250 g/Ha (*)): 0; Pre-emergence Test IPOHE, percentage damage caused to the plant (five-point scale) ([6]; 250 g/Ha (*)): 0; Pre-emergence Test ECHCG, percentage damage caused to the plant (five-point scale) ([9]; 250 g/Ha (*)): 0; Pre-emergence Test AMARE, percentage damage caused to the plant (five-point scale) ([12]; 250 g/Ha (*)): 1 (1=0-20%)
2 | CCn1c(Cn2cc(Cl)c(C)n2)cc(=O)c(C(=O)O)c1-c1ccc(Cl)c(Cl)c1 [Compound 89, 6-[(4-chloro-3-methyl-pyrazol-1-yl)methyl]-2-(3,4-dichlorophenyl)-1-ethyl-4-oxo-pyridine-3-carboxylic acid] | 4 (4=61-80%) | 3 (3=41-60%) |  | 0 | 2 (2=21-40%) | 1 (1=0-20%) | 0 | 1 (1=0-20%) | 4 (4=61-80%) | 4 (4=61-80%) | 3 (3=41-60%) | 3 (3=41-60%) | 1 (1=0-20%) | 4 (4=61-80%) | 4 (4=61-80%) | 3 (3=41-60%) | 5 (5=81-100%) | 3 (3=41-60%) | 1 (1=0-20%) | 2 (2=21-40%) | Pre-emergence Test ZEAMX, percentage damage caused to the plant (five-point scale) (Zea mays (ZEAMX) [5]; 250 g/Ha (*)): 0; Pre-emergence Test IPOHE, percentage damage caused to the plant (five-point scale) ([6]; 250 g/Ha (*)): 3 (3=41-60%); Pre-emergence Test ECHCG, percentage damage caused to the plant (five-point scale) ([9]; 250 g/Ha (*)): 4 (4=61-80%); Pre-emergence Test AMARE, percentage damage caused to the plant (five-point scale) ([12]; 250 g/Ha (*)): 0
3 | CCn1c(Cn2nc(C(F)(F)F)cc2C)cc(=O)c(C(=O)O)c1-c1ccc(Cl)c(Cl)c1 [Compound 13a, 2-(3,4-dichlorophenyl)-1-ethyl-6-[[5-methyl-3-(trifluoromethyl)pyrazol-1-yl]methyl]-4-oxo-pyridine-3-carboxylic acid] | 2 (2=21-40%) | 2 (2=21-40%) | 3 (3=41-60%) | 1 (1=0-20%) | 3 (3=41-60%) | 0 | 0 | 1 (1=0-20%) | 4 (4=61-80%) | 4 (4=61-80%) | 2 (2=21-40%) | 0 | 0 | 0 | 4 (4=61-80%) | 2 (2=21-40%) | 3 (3=41-60%) | 3 (3=41-60%) | 0 | 0 | Pre-emergence Test ZEAMX, percentage damage caused to the plant (five-point scale) (Zea mays (ZEAMX) [5]; 250 g/Ha (*)): 0; Pre-emergence Test IPOHE, percentage damage caused to the plant (five-point scale) ([6]; 250 g/Ha (*)): 0; Pre-emergence Test ECHCG, percentage damage caused to the plant (five-point scale) ([9]; 250 g/Ha (*)): 2 (2=21-40%); Pre-emergence Test AMARE, percentage damage caused to the plant (five-point scale) ([12]; 250 g/Ha (*)): 0
4 | Cn1c(Cn2ccc(Cl)n2)cc(=O)c(C(=O)O)c1-c1ccc(Cl)c(Cl)c1 [Compound 34, 6-[(3-chloropyrazol-1-yl)methyl]-2-(3,4-dichlorophenyl)-1-methyl-4-oxo-pyridine-3-carboxylic acid] | 2 (2=21-40%) |  | 4 (4=61-80%) |  | 3 (3=41-60%) | 1 (1=0-20%) | 1 (1=0-20%) | 1 (1=0-20%) | 4 (4=61-80%) | 5 (5=81-100%) | 4 (4=61-80%) | 1 (1=0-20%) | 0 | 0 | 4 (4=61-80%) | 3 (3=41-60%) | 5 (5=81-100%) | 2 (2=21-40%) | 1 (1=0-20%) | 0 | 
5 | CCOC(=O)c1nn(Cc2cc(=O)c(C(=O)O)c(-c3ccc(Cl)c(Cl)c3)n2CC)cc1C [Compound 123, 2-(3,4-dichlorophenyl)-6-[(3-ethoxycarbonyl-4-methyl-pyrazol-1-yl)methyl]-1-ethyl-4-oxo-pyridine-3-carboxylic acid] | 2 (2=21-40%) |  | 0 |  | 0 | 0 | 0 | 0 | 1 (1=0-20%) | 1 (1=0-20%) | 2 (2=21-40%) | 1 (1=0-20%) | 0 | 0 | 1 (1=0-20%) |  | 0 | 1 (1=0-20%) | 1 (1=0-20%) | 0 | 
6 | CCn1c(Cn2ncc3cc(F)ccc32)cc(=O)c(C(=O)O)c1-c1ccc(Cl)c(Cl)c1 [Compound 102, 2-(3,4-dichlorophenyl)-1-ethyl-6-[(5-fluoroindazol-1-yl)methyl]-4-oxo-pyridine-3-carboxylic acid] | 3 (3=41-60%) |  | 1 (1=0-20%) |  | 1 (1=0-20%) | 2 (2=21-40%) | 1 (1=0-20%) | 1 (1=0-20%) | 3 (3=41-60%) | 1 (1=0-20%) | 3 (3=41-60%) | 1 (1=0-20%) | 0 | 3 (3=41-60%) | 2 (2=21-40%) | 4 (4=61-80%) | 1 (1=0-20%) | 0 | 4 (4=61-80%) | 1 (1=0-20%) | 
